Experimental data published in patent US10703756B2, “Pyrrolo[2,3-D]pyrimidinyl, pyrrolo[2,3-B]pyrazinyl, pyrrolo[2,3-B]pyridinyl acrylamides and epoxides thereof” (Pfizer Inc., priority 2015, dated 2020).

Assays:
JAK3 enzyme = molecular target: T1, JAK3 enzyme (Homo sapiens, UniProt P52333); test: JAK Caliper Enzyme Assay at 1 mM ATP; format: biochemical
T1 sequence (P52333 1-1124): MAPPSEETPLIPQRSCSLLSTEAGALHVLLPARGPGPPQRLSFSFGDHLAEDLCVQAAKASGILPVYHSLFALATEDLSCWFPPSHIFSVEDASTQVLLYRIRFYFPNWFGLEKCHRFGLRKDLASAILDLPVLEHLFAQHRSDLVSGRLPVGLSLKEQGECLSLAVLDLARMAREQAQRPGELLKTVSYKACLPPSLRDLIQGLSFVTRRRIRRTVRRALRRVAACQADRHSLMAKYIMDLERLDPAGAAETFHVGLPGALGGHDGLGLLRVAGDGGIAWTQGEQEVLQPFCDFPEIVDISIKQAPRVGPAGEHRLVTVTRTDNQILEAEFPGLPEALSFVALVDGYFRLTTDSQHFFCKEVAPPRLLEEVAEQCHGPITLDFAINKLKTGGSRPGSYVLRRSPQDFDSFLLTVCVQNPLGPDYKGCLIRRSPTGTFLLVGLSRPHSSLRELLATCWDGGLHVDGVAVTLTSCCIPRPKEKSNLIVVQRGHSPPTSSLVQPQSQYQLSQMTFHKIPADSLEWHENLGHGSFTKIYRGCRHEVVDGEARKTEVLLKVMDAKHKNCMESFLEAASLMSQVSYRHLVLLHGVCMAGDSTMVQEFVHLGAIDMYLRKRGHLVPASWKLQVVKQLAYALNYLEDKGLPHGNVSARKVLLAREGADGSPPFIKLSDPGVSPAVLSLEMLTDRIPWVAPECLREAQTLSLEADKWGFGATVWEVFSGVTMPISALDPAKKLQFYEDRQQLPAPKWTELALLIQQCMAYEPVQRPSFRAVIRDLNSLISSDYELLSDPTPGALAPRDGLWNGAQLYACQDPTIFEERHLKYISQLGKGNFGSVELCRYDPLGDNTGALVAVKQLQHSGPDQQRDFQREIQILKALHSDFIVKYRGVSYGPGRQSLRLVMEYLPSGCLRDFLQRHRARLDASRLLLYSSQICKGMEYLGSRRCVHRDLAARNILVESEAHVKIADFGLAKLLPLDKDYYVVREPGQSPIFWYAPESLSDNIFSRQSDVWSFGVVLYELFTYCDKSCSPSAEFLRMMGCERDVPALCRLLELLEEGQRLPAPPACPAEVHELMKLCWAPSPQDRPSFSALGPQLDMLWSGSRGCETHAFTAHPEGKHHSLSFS
Summary of the method: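 Compound tested as 11-point half-log DMSO dilution series (top 600 μM in DMSO, a dilution-plate level). Enzyme level and time set for 20%-30% peptide phosphorylation; phosphorylated and unphosphorylated peptide separated and quantified by Caliper LC3000 mobility shift.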

[1] = Stability of JAK3 Covalent Inhibitors in Human Whole Blood; format: in vitro ADME; details: both sexes, 1 μM test compound, 37° C., 180 min incubation, read-out: Human blood stability t1/2
Summary of the method: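 Compound at 1 μM final incubated in duplicate at 37° C for 180 min in fresh K2-EDTA whole blood […]. Samples quenched in acetonitrile with internal standard; LC-MS/MS peak area ratios gave % parent remaining over time.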

[2] = tested on: IL-15 induced STAT5 phosphorylation in human whole blood lymphocytes; test: HWB IL-15 Induced STAT5 Phosphorylation Assay; format: cell-based; details: Lymphocyte, IL-15 final 50 ng/ml, read-out: HWB_IL15 pSTAT5 IC50
Summary of the method: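 Heparinised human whole blood preincubated with compound (0.2% DMSO final) 45 min at 37° C, then stimulated with human IL-15 (50 ng/ml final) for 15 min. After lyse/fix and Perm Buffer III permeabilisation, stained overnight at 4° C with AlexaFluor647 anti-phospho-STAT5; read by flow cytometry gated on total lymphocytes.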

| SMILES | IC50 (JAK3 enzyme) [µM] | half-life at 1 μM [1] [h] | IC50 [2] [µM] |
| --- | --- | --- | --- |
| C=CC(=O)N1CC[C@H](Nc2cnc3[nH]cc(C(=O)NCC)c3n2)C[C@H]1C (single isomer, unassigned) [Example 41] | 0.022 | 3.75 | 0.515 |
| C=CC(=O)N1CCC(Oc2cnc3[nH]cc(C(=O)N[C@@H]4CCC[C@@H]4F)c3n2)CC1 [Example 230, 2-[(1-acryloylpiperidin-4-yl)oxy]-N-[(1R,2S)-2-fluorocyclopentyl]-5H-pyrrolo[2,3-b]pyrazine-7-carboxamide] | 0.034 | 5.85 | 1.71 |
| C=CC(=O)N1CCC(Oc2cnc3[nH]cc(C(=O)NC4CCCC4)c3n2)CC1 (racemic) [Example 204, Racemic-2-[(1-acryloylpiperidin-4-yl)oxy]-N-cyclopentyl-5H-pyrrolo[2,3-b]pyrazine-7-carboxamide] | 0.049 | > 6 | 1.39 |
| C=CC(=O)N1CCC(N(C)c2cnc3[nH]cc(C(=O)NC(C)C)c3n2)CC1 [Example 64, 2-[(1-acryloylpiperidin-4-yl)(methyl)amino]-N-(propan-2-yl)-5H-pyrrolo[2,3-b]pyrazine-7-carboxamide] | 0.05 | 4.42 | 3.13 |
| C=CC(=O)N1CC[C@@H](Oc2cnc3[nH]cc(C(=O)N[C@@H](C)COC)c3n2)C[C@@H]1C (racemic) [Example 71, Trans-racemic-2-{[1-acryloyl-2-methylpiperidin-4-yl]oxy}-N-[(2S)-1-methoxypropan-2-yl]-5H-pyrrolo[2,3-b]pyrazine-7-carboxamide] | 0.054 | 5.15 | 0.931 |
| C=CC(=O)N1CC[C@@H](Nc2cnc3[nH]cc(C(=O)NCC)c3n2)[C@H](C)C1 (single isomer, unassigned) [Example 44] | 0.047 | 4.27 | 1.23 |
| C=CC(=O)N1CCC(Nc2cnc3[nH]cc(C(=O)NCc4ccccc4)c3n2)CC1 [Example 187, 2-[(1-acryloylpiperidin-4-yl)amino]-N-benzyl-5H-pyrrolo[2,3-b]pyrazine-7-carboxamide] | 0.006 | > 6 | 0.24 |
| C=CC(=O)N1CCN(c2cnc3[nH]cc(C(=O)N[C@@H](C)COC)c3n2)CC1 [Example 295, 2-(4-acryloylpiperazin-1-yl)-N-[(2S)-1-methoxypropan-2-yl]-5H-pyrrolo[2,3-b]pyrazine-7-carboxamide] | 0.029 | 2.22 | 0.199 |
| C=CC(=O)N1CC[C@@H](Nc2cnc3[nH]cc(C(=O)N[C@H](C)COC)c3n2)[C@@H](OC)C1 [Example 331, 2-{[(3S,4R)-1-acryloyl-3-methoxypiperidin-4-yl]amino}-N-[(2R)-1-methoxypropan-2-yl]-5H-pyrrolo[2,3-b]pyrazine-7-carboxamide] | 0.042 | 5.52 | 0.263 |
| C=CC(=O)N1CCC(Oc2cnc3[nH]cc(C(=O)N[C@@H](C)CC)c3n2)CC1 [Example 205, 2-[(1-acryloylpiperidin-4-yl)oxy]-N-[(2S)-butan-2-yl]-5H-pyrrolo[2,3-b]pyrazine-7-carboxamide] | 0.016 | 4.17 | 0.513 |
| C=CC(=O)N1CCC(Nc2cnc3[nH]cc(C(=O)NCc4ccc(F)cc4)c3n2)CC1 [Example 188, 2-[(1-acryloylpiperidin-4-yl)amino]-N-(4-fluorobenzyl)-5H-pyrrolo[2,3-b]pyrazine-7-carboxamide] | 0.006 | > 6 | 0.913 |
| C=CC(=O)N1CC[C@H](Nc2cnc3[nH]cc(C(=O)NCC)c3n2)C[C@H]1C (racemic) [Example 40, Trans-racemic-2-{[(2R,4S)-1-acryloyl-2-methylpiperidin-4-yl]amino}-N-ethyl-5H-pyrrolo[2,3-b]pyrazine-7-carboxamide] | 0.024 | 4.05 | 0.842 |
| C=CC(=O)N1CC[C@H](Nc2cnc3[nH]cc(C(=O)NCCCC(F)(F)F)c3n2)[C@H](OC)C1 [Example 319, 2-{[(3R,4S)-1-acryloyl-3-methoxypiperidin-4-yl]amino}-N-(4,4,4-trifluorobutyl)-5H-pyrrolo[2,3-b]pyrazine-7-carboxamide] | 0.045 | 5.57 | 0.396 |

The remaining compounds from weak to strong by IC50 (JAK3 enzyme), led by results:

| IC50 (JAK3 enzyme) [µM] | half-life at 1 μM [1] [h] | IC50 [2] [µM] | SMILES |
| --- | --- | --- | --- |
| 0.142 | 2.02 | 1.53 | C=CC(=O)N1CC(CF)CC(Nc2ncnc3[nH]ccc23)C1 (mixture of isomers) [Example 102, Cis-racemic-1-[3-(fluoromethyl-5-(7H-pyrrolo[2,3-d]pyrimidin-4-ylamino)piperidin-1-yl]prop-2-en-1-one] |
| 0.137 | > 6 | 5.05 | C=CC(=O)N1C[C@H](Nc2ncnc3[nH]ccc23)CC[C@@H]1CNC(C)=O (racemic) [Example 88, rac-N-(((2R,5R)-5-((7H-pyrrolo[2,3-d]pyrimidin-4-yl)amino)-1-acryloylpiperidin-2-yl)methyl)acetamide] |
| 0.094 | 1.67 | 2.92 | C=CC(=O)N(C)C1CN(c2cnc3[nH]cc(C(=O)N[C@H](C)COC)c3n2)C1 [Example 86, 2-{3-[acryloyl(methyl)amino]azetidin-1-yl}-N-[(2R)-1-methoxypropan-2-yl]-5H-pyrrolo[2,3-b]pyrazine-7-carboxamide] |
| 0.064 | 4.45 | > 10 | C=CC(=O)N1CCC(Oc2cnc3[nH]cc(C(=O)NC(C)(C)CC)c3n2)CC1 [Example 209, 2-[(1-acryloylpiperidin-4-yl)oxy]-N-(2-methylbutan-2-yl)-5H-pyrrolo[2,3-b]pyrazine-7-carboxamide] |
| 0.046 | > 6 | 0.999 | C=CC(=O)N1CC[C@@H](Nc2cnc3[nH]cc(C(=O)NCC(C)(F)F)c3n2)[C@@H](OC)C1 [Example 321, 2-{[(3S,4R)-1-acryloyl-3-methoxypiperidin-4-yl]amino}-N-(2,2-difluoropropyl)-5H-pyrrolo[2,3-b]pyrazine-7-carboxamide] |
| 0.042 | > 6 | 0.819 | C=CC(=O)N1CC[C@H](Nc2cnc3[nH]cc(C(=O)NCC4CCCC4)c3n2)[C@H](OC)C1 [Example 284, 2-{[(3R,4S)-1-acryloyl-3-methoxypiperidin-4-yl]amino}-N-(cyclopentylmethyl)-5H-pyrrolo[2,3-b]pyrazine-7-carboxamide] |
| 0.033 | > 6 | 0.738 | C=CC(=O)N1CC[C@@H](Oc2cnc3[nH]cc(C(=O)N[C@@H](C)COC)c3n2)C[C@@H]1C (single isomer, unassigned) [Example 73] |
| 0.03 | 3.12 | 0.402 | C=CC(=O)N1CCN(c2cnc3[nH]cc(C(=O)N[C@H](CC)CC#N)c3n2)C[C@@H]1CC(C)C [Example 314, 2-[(3S)-4-acryloyl-3-(2-methylpropyl)piperazin-1-yl]-N-[(2R)-1-cyanobutan-2-yl]-5H-pyrrolo[2,3-b]pyrazine-7-carboxamide] |
| 0.025 | 1.87 | 0.287 | C=CC(=O)N1C[C@@H](CC#N)C[C@@H](Nc2ncnc3[nH]ccc23)C1 (single isomer, unassigned) [Example 106] |
